Here are results for 1 molecule from patent US20040180916A1, “Treatment of pain with combinations of nalbuphine and other kappa-opioid receptor agonists and opioid receptor antagonists” (The Regents of the University of California, priority 2002, published 2004).

Experiment [1] deals with postoperative pain. Particulars: intravenous; for analgesic response (change in VAS pain rating): nalbuphine hydrochloride salt 2.5 mg alone.
Text: In this clinical trial 67 patients underwent standardized surgery by the same oral surgeon for removal of third molar teeth, including at least one bony impacted mandibular third molar. Prior to surgery, patients received intravenous diazepam, nitrous oxide, and a local anesthetic (mepivacaine without vasoconstrictor to obtain a nerve block of short duration). After surgery, each patient was randomly assigned to receive an injection of nalbuphine hydrochloride salt (Abbott Laboratories, Abbott Park, Ill.) 2.5 mg either alone or combined with naloxone hydrochloride salt (0.4 mg) in an open injection, double-blinded fashion, through an intravenous line.
Baseline pain intensity was defined as the last VAS pain rating before administration of the test drug. VAS pain ratings were recorded at 20 minute intervals beginning ten minutes after administration of the test drug. The duration of the experiment was two hours and fifty minutes, measured from the time of administration of the test drug. For each patient, the magnitude of the analgesic (or anti-analgesic) response was defined as the difference between the pain rating at each time point following test drug administration and the baseline VAS pain rating.
The test system of experiment [2] is postoperative pain. The note with it: nalbuphine hydrochloride salt 2.5 mg alone; both sexes; intravenous.
Experimental: In this clinical trial, 65 patients underwent standardized surgery by the same oral surgeon for removal of third molar teeth, including at least one bony impacted mandibular third molar. Prior to surgery, patients received intravenous diazepam, nitrous oxide, and a local anesthetic (mepivacaine without vasoconstrictor to obtain a nerve block of short duration). After surgery, each patient was randomly assigned to receive an injection of 2.5 mg of nalbuphine hydrochloride salt (Abbott Laboratories, Abbott Park, Ill.) either alone or combined with 0.2 mg naloxone hydrochloride salt in an open injection, double-blinded fashion, through an intravenous line.
Baseline pain intensity was defined as the last VAS pain rating before administration of the test drug. VAS pain ratings were recorded at 20 minute intervals beginning ten minutes after administration of the test drug. The duration of the experiment, measured from the time of administration of the test drug, was two hours and fifty minutes. For each patient, the magnitude of the analgesic (or anti-analgesic) response was defined as the difference between the pain rating at each time point following test drug administration and the baseline VAS pain rating.

Structures can show the parent of a compound that is named as a salt. Where two headings read alike, the source gives them in different places.

Turning to `Oc1ccc2c3c1O[C@H]1[C@@H](O)CC[C@@]4(O)[C@@H](C2)N(CC2CCC2)CC[C@]314` [nalbuphine hydrochloride salt, nalbuphine], the “analgesic response (change in VAS pain rating)” value in experiment [1] (FIG. 4a, women) was “induced brief analgesia”; in experiment [1] (FIG. 4b, men), “failed to produce significant analgesia”. In experiment [1] (women, nalbuphine hydrochloride salt 2.5 mg), the anti-analgesia entry was “apparently insufficient to produce anti-analgesia”. Further, in experiment [2], the analgesic effect result is “initial analgesic effect of administration of nalbuphine alone observed in both sexes”.
